Assay results as given in ChEMBL document CHEMBL1133524 (J Med Chem, 2000).
Values after ≈ are worked out from the molar mass of the structure shown. Active and inactive are the calls of the source. The calls are words filed in the database; no cut-off is given here.

Legend:
1A9 [1] = assay: Tested in vitro for cytotoxic activity against Human ovarian cancer (IA9) cell line; type: functional
MCF7 = assay: Tested in vitro for cytotoxic activity against breast cancer (MCF-7) cell line; type: functional, Homo sapiens
SK-MEL-2 = assay: Tested in vitro for cytotoxic activity against melanoma (SKMEL-2) cell line; type: functional, Homo sapiens
U-87 MG [2] = assay: Tested in vitro for cytotoxic activity against glioblastoma (U-87-MG) cell line; type: functional, Homo sapiens, U-87MG ATCC
HOS [3] = assay: Tested in vitro for cytotoxic activity against bone(HOS) cell line; type: functional, Homo sapiens
PC-3 = assay: Tested in vitro for cytotoxic activity against prostate cancer (PC3) cell line; type: functional, Homo sapiens
KB [4] = assay: Tested in vitro for cytotoxic activity against P-glycoprotein-expressing epidermoid carcinoma of the nasopharynx(KB-VIN) cell line; type: functional, Homo sapiens
HCT-8 [5] = assay: Tested in vitro for cytotoxic activity against ileocecal carcinoma (HCT-8) cell line; type: functional, Homo sapiens
A549 = type: functional, Homo sapiens
Description: Tested in vitro for cytotoxic activity against lung carcinoma (A-549) cell line

U-87 MG [6] = assay: Tested in vitro for cytotoxic activity against glioblastoma (U-87-MG) cell line; NA means Not active; type: functional, cell-based; details: Homo sapiens; U-87MG ATCC
KB [7] = assay: Tested in vitro for cytotoxic activity against epidermoid carcinoma of the nasopharynx(KB) cell line; type: functional, Homo sapiens
Tubulin = Tubulin (Bos taurus, UniProt Q6B856+Q862L2+Q862F3); assay: Inhibition of bovine tubulin polymerization; type: functional
HCT-8 [8] = assay: Tested in vitro for cytotoxic activity against ileocecal carcinoma (HCT-8) cell line; NA means Not active; type: functional, cell-based; details: Homo sapiens
1A9 [9] = assay: Tested in vitro for cytotoxic activity against Human ovarian cancer (IA9) cell line; NA means Not active; type: functional, cell-based
HOS [10] = assay: Tested in vitro for cytotoxic activity against bone(HOS) cell line; NA means Not active; type: functional, cell-based; details: Homo sapiens
KB [11] = assay: Tested in vitro for cytotoxic activity against epidermoid carcinoma of the nasopharynx(KB) cell line; NA means Not active; type: functional, cell-based; details: Homo sapiens

SMILES	ED50 (1A9 [1]) [µg/mL]	ED50 (MCF7) [µg/mL]	ED50 (SK-MEL-2) [µg/mL]	ED50 (U-87 MG [2]) [µg/mL]	ED50 (HOS [3]) [µg/mL]	ED50 (PC-3) [µg/mL]	ED50 (KB [4]) [µg/mL]	ED50 (HCT-8 [5]) [µg/mL]	ED50 (A549) [µg/mL]	ED50 (U-87 MG [6])	ED50 (KB [7]) [µg/mL]	IC50 (Tubulin) [µM]	Inhibition (KB [7]) [%]	Inhibition (PC-3) [%]	ED50 (HCT-8 [8])	Inhibition (HOS [3]) [%]	ED50 (1A9 [9])	ED50 (HOS [10])	Inhibition (KB [4]) [%]	ED50 (KB [11])
COc1cccc(-c2nc(O)c3cc(OC)ccc3n2)c1	3.4 (≈ 12 µM)	8 (≈ 28.3 µM)	> 20	> 20	> 20	> 20	3.5 (≈ 12.4 µM)	–	–	–	–	–	–	–	–	–	–	–	–	–
COc1ccc(-c2nc(O)c3ccccc3n2)cc1OC	> 20	> 20	> 20	–	> 20	> 20	> 20	> 20	> 20	inactive	> 20	–	–	–	–	–	–	–	–	–
COc1ccccc1C1NC(=O)c2ccccc2N1 (configuration not stated)	–	> 20	< 20	–	> 20	> 20	10.2 (≈ 40.1 µM)	> 20	> 20	inactive	> 20	> 40	32	30	–	–	–	–	–	–
COc1cccc(-c2nc(O)c3cc4c(cc3n2)OCO4)c1	> 20	> 20	> 20	–	> 20	> 20	> 20	–	> 20	inactive	> 20	–	–	–	inactive	–	–	–	–	–
COc1cccc(C2NC(=O)c3cc(Cl)ccc3N2)c1 (configuration not stated)	0.27 (≈ 0.935 µM)	16 (≈ 55.4 µM)	< 2.5	> 20	20 (≈ 69.3 µM)	2.5 (≈ 8.66 µM)	0.42 (≈ 1.45 µM)	0.48 (≈ 1.66 µM)	0.6 (≈ 2.08 µM)	–	0.95 (≈ 3.29 µM)	1.5	–	–	–	–	–	–	–	–
COc1cccc(-c2nc(O)c3cc(OC)c(OC)cc3n2)c1	–	12 (≈ 38.4 µM)	18 (≈ 57.6 µM)	> 20	> 20	15 (≈ 48 µM)	–	> 20	> 20	–	–	–	–	–	–	–	–	–	–	–
COc1cccc(C2NC(=O)c3ccccc3N2)c1 (configuration not stated)	1 (≈ 3.93 µM)	> 20	> 20	> 20	> 20	> 20	1.2 (≈ 4.72 µM)	1.5 (≈ 5.9 µM)	3 (≈ 11.8 µM)	–	3 (≈ 11.8 µM)	5.6	–	–	–	–	–	–	–	–
COc1ccc(OC)c(C2NC(=O)c3ccccc3N2)c1 (configuration not stated)	10 (≈ 35.2 µM)	> 20	> 20	> 20	> 20	> 20	8.4 (≈ 29.5 µM)	> 20	> 20	–	> 20	32	40	–	–	40	–	–	–	–
COc1cccc(-c2nc(O)c3cc(N4CCOCC4)ccc3n2)c1	3.8 (≈ 11.3 µM)	4.5 (≈ 13.3 µM)	4.8 (≈ 14.2 µM)	20 (≈ 59.3 µM)	–	–	3.7 (≈ 11 µM)	–	–	–	8.2 (≈ 24.3 µM)	–	–	–	–	–	–	–	–	–
COc1ccc(-c2nc(O)c3ccccc3n2)c(OC)c1	–	> 20	> 20	> 20	> 20	> 20	> 20	> 20	> 20	–	> 20	–	–	–	–	–	inactive	–	–	–
COc1cccc(-c2nc(O)c3cc(F)ccc3n2)c1	–	> 20	> 20	> 20	–	20 (≈ 74 µM)	18 (≈ 66.6 µM)	> 20	–	–	> 20	–	–	–	–	–	inactive	inactive	–	–
COc1cc(OC)cc(C2NC(=O)c3ccccc3N2)c1 (configuration not stated)	–	> 20	4.4 (≈ 15.5 µM)	> 20	> 20	> 20	1.6 (≈ 5.63 µM)	3 (≈ 10.6 µM)	5 (≈ 17.6 µM)	–	4.7 (≈ 16.5 µM)	12	–	–	–	–	–	–	–	–
COc1cccc(-c2nc(O)c3cc(Cl)ccc3n2)c1	> 20	–	4.8 (≈ 16.7 µM)	10 (≈ 34.9 µM)	17 (≈ 59.3 µM)	4.5 (≈ 15.7 µM)	6.5 (≈ 22.7 µM)	6 (≈ 20.9 µM)	3.2 (≈ 11.2 µM)	–	–	–	–	–	–	–	–	–	–	–
COc1ccc(C2NC(=O)c3ccccc3N2)cc1OC (configuration not stated)	–	20 (≈ 70.3 µM)	> 20	–	> 20	> 20	16 (≈ 56.3 µM)	> 20	> 20	inactive	> 20	> 40	28	30	–	24	–	–	–	–
COc1cccc(-c2cc(O)c3cc(N4CCCC4)ccc3n2)c1	–	–	–	–	–	–	–	–	–	–	–	0.32	–	–	–	–	–	–	–	–
COc1cccc(-c2nc(O)c3cc(N(C)C)ccc3n2)c1	0.49 (≈ 1.66 µM)	0.85 (≈ 2.88 µM)	19 (≈ 64.3 µM)	> 20	> 20	15 (≈ 50.8 µM)	0.42 (≈ 1.42 µM)	–	14 (≈ 47.4 µM)	–	10 (≈ 33.9 µM)	–	–	–	–	–	–	–	–	–
COc1ccc(C2NC(=O)c3ccccc3N2)cc1 (configuration not stated)	20 (≈ 78.7 µM)	> 20	> 20	–	> 20	> 20	> 20	> 20	> 20	inactive	> 20	> 40	–	14	–	–	–	–	39	–
COc1cccc(-c2nc(O)c3cc(N4CCCCC4)ccc3n2)c1	0.9 (≈ 2.68 µM)	8.5 (≈ 25.3 µM)	4.5 (≈ 13.4 µM)	9 (≈ 26.8 µM)	–	10 (≈ 29.8 µM)	0.6 (≈ 1.79 µM)	4.3 (≈ 12.8 µM)	2.8 (≈ 8.35 µM)	–	10 (≈ 29.8 µM)	–	–	–	–	–	–	–	–	–
COc1cccc(-c2nc(O)c3ccccc3n2)c1	> 20	26 (≈ 103 µM)	> 20	–	> 20	> 20	> 20	> 20	> 20	inactive	–	–	–	–	–	–	–	–	–	inactive
COc1cccc(-c2nc(O)c3cc(N4CCC(C)CC4)ccc3n2)c1	0.8 (≈ 2.29 µM)	10 (≈ 28.6 µM)	7.5 (≈ 21.5 µM)	–	–	–	2.5 (≈ 7.15 µM)	4 (≈ 11.4 µM)	6 (≈ 17.2 µM)	–	–	–	–	–	–	–	–	–	–	–
COc1ccc(C2NC(=O)c3ccccc3N2)c(OC)c1 (configuration not stated)	–	> 20	> 20	–	> 20	> 20	7.6 (≈ 26.7 µM)	> 20	> 20	inactive	> 20	> 40	43	–	–	40	–	–	–	–
COc1ccc(OC)c(-c2nc(O)c3ccccc3n2)c1	> 20	> 20	> 20	–	> 20	> 20	> 20	> 20	> 20	inactive	> 20	–	–	–	–	–	–	–	–	–
